Measured values published in patent US20040198609A1, “4-alkyl-substituted thienyloxy-pyridines” (priority 2001, published 2004).

Legend:
Assay in all cases: greenhouse post-emergence herbicidal test
Type in all cases: in vivo
Conditions in all cases: application rates of 0.25 or 0.125 kg/ha
Galium aparine = system: Galium aparine
Excerpt: (§1) The seeds of the test plants were sown separately for each species. For the post-emergence treatment, the test plants were first grown to a height of from 3 to 15 cm, depending on the plant habit, and only then treated with the active compounds which had been suspended or emulsified in water. The test plants were for this purpose either sown directly and grown in the same containers, or they were first grown separately as seedlings and transplanted into the test containers a few days prior to treatment. The application rate for the post-emergence treatment was 0.25 or 0.125 kg of a.s. (active substance)/ha. Depending on the species, the plants were kept at 10-25° C. or 20-35° C. The test period extended over 2 to 4 weeks. During this time, the plants were tended, and their response to the individual treatments was evaluated. Evaluation was carried out using a scale from 0 to 100. 100 means no emergence of the plants, or complete destruction of at least the above-ground parts, and 0 means no damage, or normal course of growth. The plants used in the greenhouse experiments were of the following species: [table]

Pharbitis purpurea = system: Pharbitis purpurea
Excerpt: as §1

Chenopodium album = system: Chenopodium album
Excerpt: as §1

Amaranthus retroflexus = system: Amaranthus retroflexus
Excerpt: as §1

Measured: post-emergence action

Cc1c(F)c(Oc2csc(C(F)(F)F)c2)nc(-n2ccc(C(F)(F)F)n2)c1F [compound 3.1, 3,5-Difluoro-4-methyl-2-(3-trifluoromethyl-1H-pyrazol-1-yl)-6-(5-trifluoromethyl-3-thienyloxy)pyridine]
very good: all assays above
